Results taken from PubChem BioAssay (NCI).
“And” between values parts separate entries of the source, which are not always exact repeats. Equal entries are not always repeated.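 Grown in 96-well plates, cells were treated for 48 hours with each compound at five concentrations. Insufficient inhibition: endpoint recorded as highest concentration tested. GI50 marks 50% less growth. TGI denotes the concentration required for complete inhibition of growth.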

Legend:
Assay in all cases: NCI anticancer screen, dose series, 48 h
[1] = test system: OVCAR-5 ovarian
[2] = test system: SK-MEL-5 melanoma
[3] = test system: SF-268 CNS
[4] = test system: OVCAR-4 ovarian
[5] = test system: HOP-62 NSCLC
[6] = test system: SF-295 CNS
[7] = test system: LOX IMVI melanoma
[8] = test system: HOP-92 NSCLC
[9] = test system: NCI-H460 lung
[10] = test system: SK-MEL-28 melanoma

COC(=O)c1c(C(=O)OC)c(-c2ccccc2)n(-c2ccccc2)c(=O)c1-c1ccccc1
TGI [1]: > 100 µM | TGI [2]: > 100 µM | TGI [3]: > 100 µM | TGI [4]: 78.1 µM | TGI [5]: > 100 µM | TGI [6]: > 100 µM | TGI [7]: > 100 µM | TGI [8]: 83 µM | TGI [9]: > 100 µM

CCn1cc(C(=O)O)c(=O)c2cc(F)c(N3CCN(S(=O)(=O)c4ccc(Cl)cc4Cl)CC3)cc21
GI50 [1]: 3.43 µM | TGI [1]: > 100 µM | GI50 [2]: 1.87 µM | TGI [2]: 3.93 µM | GI50 [3]: 3.86 µM | TGI [3]: > 100 µM | GI50 [10]: 3.22 µM | TGI [10]: 13.7 µM | GI50 [4]: 2.58 µM | TGI [4]: > 100 µM | GI50 [5]: 3.08 µM | TGI [5]: 9.95 µM | GI50 [7]: 1.48 µM | TGI [7]: 3.08 µM | GI50 [8]: 1.22 µM | TGI [8]: 5.22 µM | GI50 [9]: 3.13 µM | TGI [9]: 15.9 µM

O=C(N/C(=C\c1ccc([N+](=O)[O-])cc1)c1nc2ccccc2s1)c1ccccc1
TGI [1]: > 100 µM | TGI [2]: 63.5 µM | TGI [3]: 56.2 µM | TGI [10]: > 100 µM | TGI [4]: 81.3 µM | TGI [5]: > 100 µM | TGI [7]: 46.5 µM | TGI [8]: 68.8 µM

CCCCCCCCCCCC/C=C\CC[C@@H](O)[C@H](O)CC[C@H](O)[C@@H]1CC[C@@H](CCCCCCCC2=C[C@H](C)OC2=O)O1
TGI [1]: 38.4 µM | GI50 [2]: 0.0198 µM | TGI [2]: 4.11 µM and 4.85 µM | GI50 [3]: 14.2 µM | TGI [3]: 38 µM | GI50 [10]: 20.2 µM | TGI [10]: 56.3 µM | TGI [4]: 26.8 µM | GI50 [6]: 0.291 µM | TGI [6]: 15.5 µM | GI50 [7]: 3.55 µM | TGI [7]: 4.84 µM and 32.3 µM | GI50 [8]: 17.4 µM | TGI [8]: 8.69 µM and 55.2 µM | TGI [9]: 26.6 µM

COC(=O)CC1(O)C(=O)OCc2c1cc1n(c2=O)Cc2c-1nc1ccccc1c2OC (centres undefined)
TGI [1]: > 100 µM | TGI [2]: 2.74 µM | TGI [3]: > 34 µM | TGI [10]: > 100 µM | TGI [4]: > 36.1 µM | TGI [5]: 0.358 µM | TGI [6]: 17.5 µM | TGI [7]: > 81.6 µM | TGI [8]: 92.2 µM

COC1C(OC(=O)c2ccc(C)[nH]2)C(O)C(Oc2ccc3c(O)c(NC(=O)c4ccc(O)c(CC=C(C)C)c4)c(=O)oc3c2Cl)OC1(C)C (centres undefined)
TGI [1]: 33.2 µM | TGI [2]: 35.6 µM | TGI [3]: 57.4 µM | TGI [10]: 32.9 µM | TGI [4]: 99.6 µM | TGI [5]: 33.4 µM | TGI [6]: 43.4 µM | TGI [7]: 38.4 µM | TGI [9]: 69.5 µM

CC(C)(Oc1ccc(-c2cccc3ccccc23)cc1)C(=O)O
TGI [1]: > 100 µM | TGI [2]: > 100 µM | TGI [3]: > 100 µM | TGI [10]: > 100 µM | TGI [4]: > 100 µM | TGI [5]: > 100 µM | TGI [6]: > 100 µM | TGI [8]: > 100 µM | TGI [9]: > 100 µM

C=CCNC(=S)NNC(=O)c1c(C)nc2sccn12
TGI [1]: > 100 µM | TGI [2]: > 100 µM | TGI [3]: > 100 µM | TGI [10]: > 100 µM | TGI [5]: > 100 µM | TGI [6]: > 100 µM | TGI [7]: > 100 µM | TGI [8]: > 100 µM | TGI [9]: > 100 µM

CCN(CC)CCOC(COc1cc(C)cc(C)c1)COc1cc(C)cc(C)c1
GI50 [1]: 1.85 µM | TGI [1]: 6.18 µM | GI50 [2]: 1.75 µM | TGI [2]: 3.19 µM | GI50 [3]: 4.26 µM | TGI [3]: 17.6 µM | GI50 [10]: 1.84 µM | TGI [10]: 3.77 µM | GI50 [4]: 2.33 µM | TGI [4]: 13.7 µM | GI50 [5]: 2.72 µM | TGI [5]: 18.5 µM | GI50 [7]: 1.31 µM | TGI [7]: 2.73 µM

Cc1ccc(NCCNCC(C)(C)O)c2c(=O)c3ccc(Cl)cc3sc12
GI50 [1]: 1.47 µM | TGI [1]: 2.95 µM | GI50 [2]: 1.58 µM | TGI [2]: 2.95 µM | GI50 [3]: 1.52 µM | TGI [3]: 3.22 µM | GI50 [10]: 1.81 µM | TGI [10]: 3.38 µM | GI50 [6]: 1.66 µM | TGI [6]: 3.11 µM | GI50 [8]: 0.455 µM | TGI [8]: 1.92 µM | GI50 [9]: 1.22 µM | TGI [9]: 2.6 µM

Cc1cc(N2CCC(N3CCCC3)CC2)nc(/N=C(\N)Nc2ccc(Cl)c(Cl)c2)n1
GI50 [1]: 1.77 µM | TGI [1]: 3.79 µM | GI50 [2]: 1.65 µM | TGI [2]: 3.02 µM | GI50 [3]: 2.34 µM | TGI [3]: 6.66 µM | GI50 [10]: 1.91 µM | TGI [10]: 3.41 µM | GI50 [4]: 2.02 µM | TGI [4]: 3.99 µM | GI50 [5]: 1.81 µM | TGI [5]: 3.8 µM | GI50 [6]: 1.84 µM | TGI [6]: 3.55 µM | GI50 [7]: 1.61 µM | TGI [7]: 3.35 µM | GI50 [9]: 1.89 µM | TGI [9]: 3.67 µM

CC(C)c1ccc(O)c(Cc2cc(C(C)C)cc(Cc3cc(C(C)C)ccc3O)c2O)c1
TGI [1]: 3.13 µM | TGI [2]: 3.15 µM | TGI [3]: 4.01 µM | TGI [10]: 3.2 µM | TGI [4]: 2.68 µM | TGI [5]: 3.26 µM | TGI [6]: 3.3 µM | TGI [8]: 3.33 µM | TGI [9]: 3.45 µM

OC12CCC3(OC4CCCCO4)c4ccccc4C3C1c1ccccc12 (centres undefined)
TGI [2]: > 100 µM | TGI [3]: > 100 µM | TGI [10]: > 100 µM | TGI [4]: > 100 µM | TGI [5]: > 100 µM | TGI [6]: > 100 µM | TGI [7]: > 100 µM | TGI [9]: > 100 µM

Cc1ccc(C)c2c1C1CCCCC3(OCCCO3)C21O (centres undefined)
TGI [1]: > 100 µM | TGI [2]: > 100 µM | TGI [3]: > 100 µM | TGI [10]: > 100 µM | TGI [4]: > 100 µM | TGI [5]: > 100 µM | TGI [6]: > 100 µM | TGI [7]: > 100 µM | TGI [9]: > 100 µM

Nc1cccc(-c2cc(=O)c3cc4c(cc3[nH]2)OCO4)c1
TGI [1]: > 100 µM | TGI [3]: > 100 µM | TGI [10]: > 100 µM | TGI [4]: > 100 µM | TGI [5]: 29.2 µM | TGI [6]: > 26.4 µM | TGI [7]: 59.7 µM | TGI [8]: > 100 µM | TGI [9]: > 100 µM

CC1(C)CC(O)CC(C)(C)N1O
TGI [1]: > 100 µM | TGI [2]: > 100 µM | TGI [3]: > 100 µM | TGI [10]: > 100 µM | GI50 [4]: > 100 µM | TGI [4]: > 100 µM | TGI [5]: > 100 µM | TGI [6]: > 100 µM | GI50 [7]: > 100 µM | TGI [7]: > 100 µM | TGI [9]: > 100 µM

COc1cc(C2CC(c3ccccc3)=NN2C=O)ccc1Oc1ccnc2cc(Cl)ccc12 (centres undefined)
GI50 [1]: > 100 µM | TGI [1]: > 100 µM | GI50 [3]: 23.2 µM | TGI [3]: > 100 µM | GI50 [10]: > 100 µM | TGI [10]: > 100 µM | GI50 [4]: 4.17 µM | TGI [4]: 34 µM | GI50 [5]: 12.4 µM | TGI [5]: 36.3 µM | GI50 [6]: 5.58 µM | TGI [6]: 86.2 µM | GI50 [7]: > 100 µM | TGI [7]: > 100 µM | GI50 [8]: 1.5 µM | TGI [8]: 13.6 µM | GI50 [9]: 18.5 µM | TGI [9]: > 100 µM

COc1cc(N=Nc2cc(Cc3ccc(N(C)C)cc3)c(N)cc2N(C)C)c2ncccc2c1
GI50 [1]: 0.801 µM | TGI [1]: 2.66 µM | GI50 [2]: 0.227 µM | TGI [2]: 0.714 µM | GI50 [3]: 0.593 µM | TGI [3]: 2.31 µM | GI50 [10]: 0.745 µM | TGI [10]: 2.2 µM | GI50 [4]: 0.175 µM | TGI [4]: 0.549 µM | GI50 [6]: 0.618 µM | TGI [6]: 2 µM | GI50 [7]: 0.465 µM | TGI [7]: 1.87 µM | GI50 [8]: 0.266 µM | TGI [8]: 1.5 µM | GI50 [9]: 0.519 µM | TGI [9]: 1.91 µM
